In patent EP1019392B1, “TRICYCLIC AMIDES USEFUL FOR INHIBITION OF G-PROTEIN FUNCTION AND FOR TREATMENT OF PROLIFERATIVE DISEASES” (SCHERING CORPORATION, priority 1995, dated 1997):
pIC50: −log10 of the molar value. Counter-ions that a name gives are not always drawn. Like-named read-outs stand apart in the source and are kept apart here.

Key:
[1] = tested on: Normal human HEPM fibroblasts; experiment: Cell Mat Assay, normal cell mat; type: cell-based; details: normal monolayer
[2] = tested on: SW620-BAG human colon carcinoma cells expressing an activated K-ras gene; experiment: Cell Mat Assay, SW620 tumor cells; type: cell-based
[3] = tested on: T24-BAG4 human bladder carcinoma cells expressing an activated H-ras gene; experiment: Cell Mat Assay, T24 tumor cells; type: cell-based; details: read-out: Tumor (T-24) IC50
[4] = tested on: DLD-1-BAG human colon carcinoma cells expressing as activated K-ras gene; experiment: Cell Mat Assay, DLD-1 tumor cells; type: cell-based
[5] = molecular target: T1, farnesyl protein transferase (FPT) (Rattus norvegicus, UniProt Q02293+Q04631); experiment: In vitro enzyme assay: inhibition of farnesyl protein transferase (transfer of [3H]farnesyl to Ras-CVLS); type: biochemical; details: partially purified rat brain FPT, Ras-CVLS
T1 construct: were partially purified from rat brain by ammonium sulfate fractionation followed by Q-Sepharose; from tissue; host or cells: rat brain
Description: • 1. In vitro enzyme assays: Inhibition of farnesyl protein transferase and geranylgeranyl protein transferase. […] Human farnesyl protein transferase was also expressed in E. coli, using cDNA clones encoding both the a and b subunits. […] Human farnesyl protein transferase was partially-purified from the soluble protein fraction of E. coli as described above. […] Two forms of val^12-Ha-Ras protein were prepared as substrates for these enzymes, differing in their carboxy terminal sequence. One form terminated in cysteine-valine-leucine-serine (Ras-CVLS) the other in cystein-valine-leucine-leucine (Ras-CVLL). Ras-CVLS is a substrate for the farnesyl protein transferase while Ras-CVLL is a substrate for geranylgeranyl protein transferase I. The cDNAs encoding these proteins were constructed so that the proteins contain an amino-terminal extension of 6 histidine residues. Both proteins were expressed in Escherichia coli and purified using metal chelate affinity chromatography. The radiolabelled isoprenyl pyrophosphate substrates, [^3H]farnesyl pyrophosphate and [^3H]geranylgeranyl pyrophosphate, were purchased from DuPont/New England Nuclear. […] The reaction was allowed to proceed for 30 minutes at room temperature and then stopped with 0.5 ml of 4% sodium dodecyl sulfate (SDS) followed by 0.5 ml of cold 30% TCA. Samples were allowed to sit on ice for 45 minutes and precipitated Ras protein was then collected on GF/C filter paper mats using a Brandel cell harvester. […] Percent inhibition was calculated relative to the DMSO vehicle control. The geranylgeranyl protein transferase I assay was essentially identical to the farnesyl protein transferase assay described above, with two exceptions: [^3H]geranylgeranylpyrophosphate replaced farnesyl pyrophosphate as the isoprenoid donor and Ras-CVLL was the protein acceptor. […] Cell-Based Assay: Transient expression of val^12-Ha-Ras-CVLS and val^12-Ha-Ras-CVLL in COS monkey kidney cells: Effect of farnesyl protein transferase inhibitors on Ras processing and on disordered cell growth induced by transforming Ras. COS monkey kidney cells were transfected by electroporation with the plasmid pSV-SPORT (Gibco/BRL) containing a cDNA insert encoding either Ras-CVLS or Ras-CVLL, leading to transient overexpression of a Ras substrate for either farnesyl protein transferase or geranylgeranyl protein transferase I, respectively (see above). Following electroporation, cells were plated into 6-well tissue culture dishes containing 1.5 ml of Dulbecco's-modified Eagle's media (GIBCO, Inc.) supplemented with 10% fetal calf serum and the appropriate farnesyl protein transferase inhibitors. After 24 hours, media was removed and fresh media containing the appropriate drugs was re-added. 48 hours after electroporation cells were examined under the microscope to monitor disordered cell growth induced by transforming Ras. Cells expressing transforming Ras become more rounded and refractile and overgrow the monolayer, reminiscent of the transformed phenotype. Cells were then photographed, washed twice with 1 ml of cold phosphate-buffered saline (PBS) and removed from the dish by scraping with a rubber policeman into 1 ml of a buffer containing 25 mM Tris, pH 8.0; 1 mM ethylenediamine tetraacetic acid; 1 mM phenylmethylsulfonyl fluoride; […] leupeptin; and 0.1 mM pepstatin. Cells were lysed by homogenization and cell debris was removed by centrifugation at 2000 x g for 10 min. Cellular protein was precipitated by addition of ice-cold trichloroacetic acid and redissolved in […] of SDS-electrophoresis sample buffer. […] Proteins resolved on the gels were electroblotted onto nitrocellulose membranes for immunodetection. […] After washing, membranes were incubated for one hour at room temperature with a 1:5000 dilution of secondary antibody, rabbit anti-rat IgG conjugated to horseradish peroxidase, in PBS containing 1% fetal calf serum.

[6] = tested on: Ras-CVLS processing in COS monkey kidney cells; experiment: COS cell assay: inhibition of Ras-CVLS processing (Western blot); type: cell-based
Text: • 1. In vitro enzyme assays: Inhibition of farnesyl protein transferase and geranylgeranyl protein transferase. Both farnesyl protein transferase (FPT) and geranylgeranyl protein transferase (GGPT) I were partially purified from rat brain by ammonium sulfate fractionation followed by Q-Sepharose (Pharmacia, Inc.) anion exchange chromatography essentially as described by Yokoyama et al (Yokoyama, K., et al., (1991), A protein geranylgeranyltransferase from bovine brain: Implications for protein prenylation specificity, Proc. Natl. Acad. Sci USA 88: 5302-5306, the disclosure of which is incorporated herein by reference thereto). Human farnesyl protein transferase was also expressed in E. coli, using cDNA clones encoding both the a and b subunits. The methods used were similar to those published (Omer, C. et al., (1993), Characterization of recombinant human farnesyl protein transferase: Cloning, expression, farnesyl diphosphate binding, and functional homology with yeast prenyl-protein transferases, Biochemistry 32:5167-5176). Human farnesyl protein transferase was partially-purified from the soluble protein fraction of E. coli as described above. […] Two forms of val^12-Ha-Ras protein were prepared as substrates for these enzymes, differing in their carboxy terminal sequence. One form terminated in cysteine-valine-leucine-serine (Ras-CVLS) the other in cystein-valine-leucine-leucine (Ras-CVLL). Ras-CVLS is a substrate for the farnesyl protein transferase while Ras-CVLL is a substrate for geranylgeranyl protein transferase I. The cDNAs encoding these proteins were constructed so that the proteins contain an amino-terminal extension of 6 histidine residues. Both proteins were expressed in Escherichia coli and purified using metal chelate affinity chromatography. The radiolabelled isoprenyl pyrophosphate substrates, [^3H]farnesyl pyrophosphate and [^3H]geranylgeranyl pyrophosphate, were purchased from DuPont/New England Nuclear. Several methods for measuring farnesyl protein transferase activity have been described (Reiss et al 1990, Cell 62: 81; Schaber et al 1990, J. Biol. Chem. 265: 14701; Manne et al 1990, PNAS 87: 7541; and Barbacid & Manne 1993, U.S. Patent No. 5,185,248). […] The reaction was allowed to proceed for 30 minutes at room temperature and then stopped with 0.5 ml of 4% sodium dodecyl sulfate (SDS) followed by 0.5 ml of cold 30% TCA. Samples were allowed to sit on ice for 45 minutes and precipitated Ras protein was then collected on GF/C filter paper mats using a Brandel cell harvester. Filter mats were washed once with 6% TCA, 2% SDS and radioactivity was measured in a Wallac 1204 Betaplate BS liquid scintillation counter. Percent inhibition was calculated relative to the DMSO vehicle control. The geranylgeranyl protein transferase I assay was essentially identical to the farnesyl protein transferase assay described above, with two exceptions: [^3H]geranylgeranylpyrophosphate replaced farnesyl pyrophosphate as the isoprenoid donor and Ras-CVLL was the protein acceptor. […] Cell-Based Assay: Transient expression of val^12-Ha-Ras-CVLS and val^12-Ha-Ras-CVLL in COS monkey kidney cells: Effect of farnesyl protein transferase inhibitors on Ras processing and on disordered cell growth induced by transforming Ras. COS monkey kidney cells were transfected by electroporation with the plasmid pSV-SPORT (Gibco/BRL) containing a cDNA insert encoding either Ras-CVLS or Ras-CVLL, leading to transient overexpression of a Ras substrate for either farnesyl protein transferase or geranylgeranyl protein transferase I, respectively (see above). Following electroporation, cells were plated into 6-well tissue culture dishes containing 1.5 ml of Dulbecco's-modified Eagle's media (GIBCO, Inc.) supplemented with 10% fetal calf serum and the appropriate farnesyl protein transferase inhibitors. After 24 hours, media was removed and fresh media containing the appropriate drugs was re-added.

[7] = tested on: DLD-1 (human colon carcinoma cells, ATCC # CCL 221); experiment: In Vivo Anti-Tumor Studies, subcutaneous DLD-1 tumors; design: species or system athymic nu/nu female mice; details: Mus musculus, DLD-1, po, QID, 4 weeks, range over the listed compounds; for inhibition in vivo at 10 mg/kg: 10 mg/kg p.o.; for inhibition in vivo at 50 mg/kg: 50 mg/kg p.o.
Text: Tumor cells (5 X 10^5 to 8 X 10^6) of DLD-1 (human colon carcinoma cells, ATCC # CCL 221) are innolculated subcutaneously into the flank of 5-6 week o;d athymic nu/nu female mice.

[8] = Homo sapiens, SW-620, Mat assay

NC(=O)N1CCC(CC(=O)N2CCC([C@@H]3c4ncc(Br)cc4CCc4cc(Cl)cc(Br)c43)CC2)CC1 [Example 10A]
pIC50 [1]: 5.10
pIC50 ([2]; Mat assay): 5.80
pIC50 [3]: > 5.80

NC(=O)N1CCC(CC(=O)N2CCC(C3c4ncc(Br)cc4CCc4cc(Cl)cc(Br)c43)CC2)CC1 (centres unmarked) [Example 10B]
pIC50 [1]: < 4.60
pIC50 ([2]; Mat assay): 5.80
pIC50 ([4]; Mat assay): 5.80
pIC50 [3]: > 5.80

O=C(Cc1cc[n+]([O-])cc1)N1CCC(=C2c3ncc(Br)cc3CCc3cc(Cl)cc(Br)c32)CC1 (single isomer, unassigned) [Example 7A]
pIC50 ([5]; FPT IC50, Table 1): < 7.00
pIC50 [1]: < 4.60
pIC50 [6]: < 6.00
inhibition in vivo at 10 mg/kg [7]: 7 to 50%
inhibition in vivo at 50 mg/kg [7]: 35.4 to 83%
pIC50 [3]: > 5.80

O=C(Cc1cc[n+]([O-])cc1)N1CCN([C@@H]2c3ncc(Br)cc3CCc3cc(Cl)cc(Br)c32)CC1 [Example 11B]
pIC50 ([5]; Table 1, read-out: FPT IC50): < 7.02
pIC50 [1]: < 4.60
pIC50 ([2]; Mat assay): 4.74
pIC50 ([4]; Mat assay): 5.10
pIC50 [3]: > 5.80

O=C(Cc1cc[n+]([O-])cc1)N1CCC(C2c3ccc(Cl)c(Br)c3CCc3cc(Br)cnc32)CC1 (centres unmarked) [Example 14B]
pIC50 ([5]; FPT IC50, Table 1): 8.30

O=C(Cc1cc[n+]([O-])cc1)N1CCN(C2c3ccc(Cl)c(Br)c3CCc3cc(Br)cnc32)CC1 (centres unmarked) [5 • HCl salt]
pIC50 ([5]; Table 1, read-out: FPT IC50): 8.42
pIC50 ([6]; Primates, COS): 8.00

O=C(Cc1cc[n+]([O-])cc1)N1CCN(C2c3ncc(Br)cc3CCc3cccc(Cl)c32)CC1 (single isomer, unassigned) [Example 20]
pIC50 ([6]; Primates, COS): ~7.52

NC(=O)N1CCC(CC(=O)N2CCC(C3c4ccc(Cl)c(Br)c4CCc4cc(Br)cnc43)CC2)CC1 (single isomer, unassigned) [Example 13B]
pIC50 [2, 8]: < 5.51
pIC50 ([3]; Homo sapiens): > 5.80

NC(=O)N1CCC(CC(=O)N2CCC(C3c4ccc(Cl)c(Br)c4CCc4cc(Br)cnc43)CC2)CC1 (single isomer, unassigned) [Example 13A]
pIC50 [6]: < 6.00
pIC50 ([2]; Mat assay): 5.20
pIC50 ([4]; Homo sapiens, DLD-1, Mat assay): 5.20

NC(=O)N1CCC(CC(=O)N2CCN([C@@H]3c4ccc(Cl)cc4CCc4cc(Br)cnc43)CC2)CC1 [Example 17]
pIC50 ([5]; Table 1, read-out: FPT IC50): 7.37
pIC50 ([1]; Homo sapiens, Fibroblast): < 4.60
pIC50 ([6]; Primates, COS): 6.46
pIC50 ([4]; Homo sapiens, DLD-1, Mat assay): 5.20
pIC50 ([3]; Homo sapiens): 5.80

O=C(Cc1cc[n+]([O-])cc1)N1CCC(C2c3ccc(Cl)c(Br)c3CCc3cc(Br)cnc32)CC1 (centres unmarked) [14A • HCl salt]
pIC50 ([5]; Table 1, read-out: FPT IC50): > 8.51
pIC50 [6]: 7.82

NC(=O)N1CCC(CC(=O)N2CCN([C@H]3c4ccc(Cl)c(Br)c4CCc4cc(Br)cnc43)CC2)CC1 [Example 6]
pIC50 ([5]; Table 1, read-out: FPT IC50): 8.51
pIC50 ([6]; Primates, COS): 7.40
pIC50 [2, 8]: 5.20
pIC50 ([4]; Homo sapiens, DLD-1, Mat assay): 5.40
inhibition in vivo at 10 mg/kg [7]: 7 to 50%
inhibition in vivo at 50 mg/kg [7]: 35.4 to 83%
pIC50 ([3]; Homo sapiens): > 5.80

NC(=O)N1CCC(CC(=O)N2CCC(C3c4ccc(Cl)cc4C=Cc4cc(Br)cnc43)CC2)CC1 (centres unmarked) [Example 1]
pIC50 ([5]; Table 1, read-out: FPT IC50): > 7.47
pIC50 ([1]; Homo sapiens, Fibroblast): < 4.60
inhibition in vivo at 10 mg/kg [7]: 7 to 50%
inhibition in vivo at 50 mg/kg [7]: 35.4 to 83%
pIC50 ([3]; Homo sapiens): > 5.80

O=C(Cc1cc[n+]([O-])cc1)N1CCC(C2c3ncc(Br)cc3CCc3cc(Cl)cc(Br)c32)CC1 (centres unmarked) [Example 9B]
pIC50 ([5]; FPT IC50, Table 1): 8.52

O=C(Cc1cc[n+]([O-])cc1)N1CCC(C2c3ncc(Br)cc3CCc3cc(Cl)cc(Br)c32)CC1 (single isomer, unassigned) [Example 9A]
pIC50 ([6]; Primates, COS): 6.07
pIC50 ([3]; Homo sapiens): > 5.80

O=C(Cc1cc[n+]([O-])cc1)N1CCN(C2c3ncc(Br)cc3CCc3cc(Cl)cc(F)c32)CC1 (centres unmarked) [Example 21]
pIC50 ([5]; Table 1, read-out: FPT IC50): 8.08
pIC50 ([6]; Primates, COS): 6.38

O=C(Cc1cc[n+]([O-])cc1)N1CCN(C2c3ncc(Br)cc3CCc3cc(Cl)cc(Br)c32)CC1 (racemic) [Example 11]
pIC50 ([5]; Table 1, read-out: FPT IC50): 8.70
pIC50 ([6]; Primates, COS): > 6.60
